Assay results published in the NIST ThermoML archive (doi:10.1016/j.fluid.2018.05.028).

Assay: xn = mol fraction of the nth substance listed
Conditions: 101 kPa, Liquid; for speed of sound: Single path-length method; for mass density: Vibrating tube method; for viscosity: Concentric cylinders viscometry

CCCCCCCC/C=C\CCCCCCCC(=O)OCC [ethyl (Z)-9-octadeceneoate] + CCCO
Conditions | mass density [kg/m3] | speed of sound [m/s] | viscosity [mPa·s]
318.15 K, x2 = 0 | 850.78 | – | –
318.15 K, x2 = 0.1 | 848.97 | – | –
318.15 K, x2 = 0.2 | 846.91 | – | –
318.15 K, x2 = 0.3 | 844.5 | – | –
318.15 K, x2 = 0.4 | 841.62 | – | –
318.15 K, x2 = 0.5 | 838.06 | 1272.1 | –
318.15 K, x2 = 0.6 | 833.53 | 1260.7 | –
318.15 K, x2 = 0.7 | 827.44 | 1245.5 | –
318.15 K, x2 = 0.8 | 818.94 | 1224.5 | –
318.15 K, x2 = 0.9 | 805.97 | 1191.9 | –
323.15 K, x2 = 0 | 847.17 | 1288.9 | 3.214
323.15 K, x2 = 0.1 | 845.32 | 1284.2 | 3.036
323.15 K, x2 = 0.2 | 843.22 | 1278.4 | 2.871
323.15 K, x2 = 0.3 | 840.76 | 1272 | 2.712
323.15 K, x2 = 0.4 | 837.83 | 1264.2 | 2.542
323.15 K, x2 = 0.5 | 834.21 | 1254.8 | 2.36
323.15 K, x2 = 0.6 | 829.63 | 1243.3 | 2.163
323.15 K, x2 = 0.7 | 823.48 | 1228.1 | 1.945
323.15 K, x2 = 0.8 | 814.91 | 1207.2 | 1.704
323.15 K, x2 = 0.9 | 801.87 | 1174.8 | 1.433
328.15 K, x2 = 0 | 843.58 | 1271.9 | 2.921
328.15 K, x2 = 0.1 | 841.67 | 1267.1 | 2.762
328.15 K, x2 = 0.2 | 839.52 | 1261.3 | 2.612
328.15 K, x2 = 0.3 | 837.01 | 1254.8 | 2.467
328.15 K, x2 = 0.4 | 834.04 | 1247.1 | 2.312
328.15 K, x2 = 0.5 | 830.37 | 1237.6 | 2.146
328.15 K, x2 = 0.6 | 825.72 | 1226.1 | 1.969
328.15 K, x2 = 0.7 | 819.5 | 1210.8 | 1.768
328.15 K, x2 = 0.8 | 810.86 | 1190 | 1.55
328.15 K, x2 = 0.9 | 797.72 | 1157.7 | 1.301
333.15 K, x2 = 0 | 839.98 | 1255.2 | 2.643
333.15 K, x2 = 0.1 | 838.03 | 1250.2 | 2.502
333.15 K, x2 = 0.2 | 835.83 | 1244.3 | 2.366
333.15 K, x2 = 0.3 | 833.26 | 1237.8 | 2.236
333.15 K, x2 = 0.4 | 830.24 | 1230 | 2.098
333.15 K, x2 = 0.5 | 826.5 | 1220.5 | 1.948
333.15 K, x2 = 0.6 | 821.79 | 1208.9 | 1.792
333.15 K, x2 = 0.7 | 815.49 | 1193.6 | 1.611
333.15 K, x2 = 0.8 | 806.76 | 1172.8 | 1.413
333.15 K, x2 = 0.9 | 793.52 | 1140.6 | 1.185
338.15 K, x2 = 0 | 836.39 | 1238.6 | 2.448
338.15 K, x2 = 0.1 | 834.39 | 1233.4 | 2.317
338.15 K, x2 = 0.2 | 832.14 | 1227.5 | 2.191
338.15 K, x2 = 0.3 | 829.51 | 1220.9 | 2.069
338.15 K, x2 = 0.4 | 826.42 | 1213 | 1.938
338.15 K, x2 = 0.5 | 822.62 | 1203.5 | 1.796
338.15 K, x2 = 0.6 | 817.84 | 1191.8 | 1.649
338.15 K, x2 = 0.7 | 811.45 | 1176.5 | 1.477
338.15 K, x2 = 0.8 | 802.63 | 1155.6 | 1.294
338.15 K, x2 = 0.9 | 789.27 | 1123.5 | 1.08
343.15 K, x2 = 0 | 832.81 | 1222.5 | 2.254
343.15 K, x2 = 0.1 | 830.76 | 1216.9 | 2.135
343.15 K, x2 = 0.2 | 828.45 | 1210.9 | 2.018
343.15 K, x2 = 0.3 | 825.76 | 1204.2 | 1.905
343.15 K, x2 = 0.4 | 822.6 | 1196.2 | 1.784
343.15 K, x2 = 0.5 | 818.73 | 1186.6 | 1.65
343.15 K, x2 = 0.6 | 813.87 | 1174.9 | 1.515
343.15 K, x2 = 0.7 | 807.39 | 1159.5 | 1.354
343.15 K, x2 = 0.8 | 798.46 | 1138.5 | 1.185
343.15 K, x2 = 0.9 | 784.97 | 1106.3 | 0.9873
